Laboratory results reported in US20030134774A1, “Methods for inhibiting cardiac disorders” (priority 2001, published 2003).

Columns and labels:
cardiomyocytes [1] = assay: TUNEL assay of apoptosis in cardiomyocyte cultures; format: cell-based, rat; conditions: 500 μM, 24 hr
Protocol: rPMT increases H2O2-induced apoptosis in cardiomyocyte cultures. Cells were treated without or with rPMT (400 ng/ml) for 24 hr followed by H202 (500 μM) for 24 hr. The percentage of cells undergoing apoptosis was measured by TUNEL assay as described in Methods below. Data are from a single experiment and are representative of results obtained on 3 separate culture preparations.
TUNEL staining was performed for detection of apoptotic cells according to manufacturer's instructions (Boehringer). Approximately 500 cardiomyocytes were imaged by fluorescence microscopy and the number of cells that scored TUNEL-positive is presented as a percentage of total.

cardiomyocytes [2] = assay: Tolerance of cardiomyocytes to prolonged incubation with inhibitor; conditions: prolonged (24 hr) incubations

OO [H202, reference compound]
apoptosis (TUNEL) (cardiomyocytes [1]): induces apoptosis

CC(=O)c1c(O)c(C)c(O)c(Cc2c(O)c3c(c(C(=O)/C=C/c4ccccc4)c2O)OC(C)(C)C=C3)c1O [rottlerin]
tolerance of cardiomyocytes to the inhibitor (cardiomyocytes [2]): do not tolerate
